Measurements published in patent publication US20230286969A1, “AROMATIC SPIRO RING AMIDE DERIVATIVES FOR THE TREATMENT AND PROPHYLAXIS OF HEPATITIS B VIRUS INFECTION” (Hoffmann-La Roche Inc., priority 2020, published 2023).

Columns and labels:
Assay type in all cases: cell-based
[1] = system: HBeAg; assay: PHH HBV natural infection assay, HBeAg (alphalisa); settings: Hepatitis B virus, Hepatocyte, 72 h, read-out: HbeAg IC50, HBV-infected primary human hepatocytes, supernatant, compound medium refreshed two times with 72-hour interval
Outline: (§1)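 Primary human hepatocytes infected with HBV at 200 GE/cell plus 4% PEG8000 for 24 h, then sandwich-cultured 72 h. Compounds were added in two refreshes 72 h apart. HBsAg and HBeAg in supernatant measured by AlphaLISA.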

[2] = system: HBsAg; assay: PHH HBV natural infection assay, HBsAg (alphalisa); settings: Hepatitis B virus, Hepatocyte, 72 h, read-out: HBsAg IC50, HBV-infected primary human hepatocytes, supernatant, compound medium refreshed two times with 72-hour interval
Outline: as §1

[3] = PHH natural infection assay, cytotoxicity (Cell Counting Kit-8); settings: human, HBV-infected primary human hepatocytes, CCK8, end of treatment
Outline: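 HBV-infected at 200 GE/cell with 4% PEG8000 for 24 h, then sandwich-cultured 72 h in 1% DMSO and 0.25 mg/mL matrix gel. Compound added twice at 72-h intervals; supernatant HBsAg and HBeAg read by AlphaLISA, HBV DNA by quantitative fluorescence PCR kit. Cytotoxicity by CCK-8.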

| SMILES | IC50 [1] | IC50 [2] | CC50 at 144 h [3] |
| --- | --- | --- | --- |
| O=C(NC1CC2(C1)CC(c1nc3cc(Cl)ccc3o1)C2)c1ccc(S(=O)(=O)CC2CC(F)(F)C2)o1 (stereo not drawn) [Example 27, N-[6-(5-chloro-1,3-benzoxazol-2-yl)spiro[3.3]heptan-2-yl]-5-[(3,3-difluorocyclobutyl)methylsulfonyl]furan-2-carboxamide] | 0.116 µM | 0.152 µM | > 100 µM |
| CC(C)CS(=O)(=O)c1ccc(C(=O)NC2CC3(C2)CC(c2nc4cc(Cl)ccc4o2)C3)o1 (stereo not drawn) [Example 22, N-[6-(5-chloro-1,3-benzoxazol-2-yl)spiro[3.3]heptan-2-yl]-5-isobutylsulfonyl-furan-2-carboxamide] | 0.264 µM | 0.506 µM | 75.6 µM |
| O=C(N[C@H]1CC2(C1)C[C@H](c1nc3cc(Cl)ccc3o1)C2)c1ccc(S(=O)(=O)NC(=O)C23CC(C2)C3)o1 (single isomer, unassigned) [Example 76, (Sa)-5-(bicyclo[1.1.1]pentane-1-carbonylsulfamoyl)-N-[6-(5-chloro-1,3-benzoxazol-2-yl)spiro[3.3]heptan-2-yl]furan-2-carboxamide, or (Ra)-5-(bicyclo[1.1.1]pentane-1-carbonylsulfamoyl)-N-[6-(5-chloro-1,3-benzoxazol-2-yl)spiro[3.3]heptan-2-yl]furan-2-carboxamide] | 1.99 µM | 2.84 µM | > 10 µM |
| CC(C)C[S+]([O-])c1ccc(C(=O)NC2CC3(C2)CC(c2nc4cc(Cl)ccc4o2)C3)o1 (stereo not drawn) [Example 21, N-[6-(5-chloro-1,3-benzoxazol-2-yl)spiro[3.3]heptan-2-yl]-5-isobutylsulfinyl-furan-2-carboxamide] | 0.314 µM | 0.372 µM | 92.4 µM |
| O=C(NC1CC2(C1)CC(c1nc3cc(Cl)ccc3o1)C2)c1occc1Br (stereo not drawn) [Example 5, 3-bromo-N-[6-(5-chloro-1,3-benzoxazol-2-yl)spiro[3.3]heptan-2-yl]furan-2-carboxamide] | 6.29 µM | 8.19 µM | 73.2 µM |
| N=S(=O)(CC1COC1)c1ccc(C(=O)NC2CC3(C2)CC(c2nc4cc(Cl)ccc4o2)C3)o1 (stereo not drawn) [Example 56, N-[6-(5-chloro-1,3-benzoxazol-2-yl)spiro[3.3]heptan-2-yl]-5-(oxetan-3-ylmethylsulfonimidoyl)furan-2-carboxamide] | 2.9 µM | 4.41 µM | > 100 µM |
| O=C(NC1CC2(C1)CC(c1nc3cc(Cl)ccc3o1)C2)c1ccc(S(=O)(=O)C2COC2)o1 (stereo not drawn) [Example 18, N-[6-(5-chloro-1,3-benzoxazol-2-yl)spiro[3.3]heptan-2-yl]-5-(oxetan-3-ylsulfonyl)furan-2-carboxamide] | 1.81 µM | 3.27 µM | 72.1 µM |
| NS(=O)(=O)Cc1ccc(C(=O)NC2CC3(C2)CC(c2nc4cc(Cl)ccc4o2)C3)o1 (stereo not drawn) [Example 33, N-[6-(5-chloro-1,3-benzoxazol-2-yl)spiro[3.3]heptan-2-yl]-5-(sulfamoylmethyl)furan-2-carboxamide] | 1.39 µM | 1.41 µM | > 100 µM |
| CS(=O)(=O)CCc1ccc(C(=O)NC2CC3(C2)CC(c2nc4cc(Cl)ccc4o2)C3)o1 (stereo not drawn) [Example 32, N-[6-(5-chloro-1,3-benzoxazol-2-yl)spiro[3.3]heptan-2-yl]-5-(2-methylsulfonylethyl)furan-2-carboxamide] | 3.15 µM | 4.94 µM | > 100 µM |
| COCc1ccc(C(=O)NC2CC3(C2)CC(c2nc4cc(Cl)ccc4o2)C3)o1 (stereo not drawn) [Example 9, N-[6-(5-chloro-1,3-benzoxazol-2-yl)spiro[3.3]heptan-2-yl]-5-(methoxymethyl)furan-2-carboxamide] | 1.01 µM | 1.57 µM | 91 µM |
| O=C(NC1CC2(C1)CC(c1nc3cc(Cl)ccc3o1)C2)c1cc(C(F)(F)F)n[nH]1 (stereo not drawn) [Example 12, N-[6-(5-chloro-1,3-benzoxazol-2-yl)spiro[3.3]heptan-2-yl]-3-(trifluoromethyl)-1H-pyrazole-5-carboxamide] | 6.86 µM | 3.96 µM | 30.2 µM |
| COCCOCC(=O)NS(=O)(=O)c1ccc(C(=O)N[C@H]2CC3(C2)C[C@H](c2nc4cc(Cl)ccc4o2)C3)o1 (single isomer, unassigned) [Example 78, (Sa)—N-[6-(5-chloro-1,3-benzoxazol-2-yl)spiro[3.3]heptan-2-yl]-5-[[2-(2-methoxyethoxy)acetyl]sulfamoyl]furan-2-carboxamide, or (Ra)—N-[6-(5-chloro-1,3-benzoxazol-2-yl)spiro[3.3]heptan-2-yl]-5-[[2-(2-methoxyethoxy)acetyl]sulfamoyl]furan-2-carboxamide] | 0.929 µM | 2.45 µM | > 100 µM |
| O=C(NC1CC2(C1)CC(c1nc3cc(Cl)ccc3o1)C2)c1ccc(S(=O)(=O)NC(=O)C2CCCC2)o1 (stereo not drawn) [Example 81, N-[6-(5-chloro-1,3-benzoxazol-2-yl)spiro[3.3]heptan-2-yl]-5-(cyclopentanecarbonylsulfamoyl)furan-2-carboxamide] | 0.796 µM | 1.74 µM | 11.3 µM |
| COc1ccc(C(=O)NC2CC3(C2)CC(c2nc4cc(Cl)ccc4o2)C3)o1 (stereo not drawn) [Example 8, N-[6-(5-chloro-1,3-benzoxazol-2-yl)spiro[3.3]heptan-2-yl]-5-methoxy-furan-2-carboxamide] | 5.84 µM | 7.96 µM | 94.2 µM |
| N=S(=O)(c1ccc(C(=O)NC2CC3(C2)CC(c2nc4cc(Cl)cnc4o2)C3)o1)C1CC1 (stereo not drawn) [Example 64, N-[6-(6-chlorooxazolo[5,4-b]pyridin-2-yl)spiro[3.3]heptan-2-yl]-5-(cyclopropylsulfonimidoyl)furan-2-carboxamide] | 2.33 µM | 2.93 µM | > 100 µM |
| O=C(NC1CC2(C1)CC(c1nc3cc(Cl)ccc3o1)C2)c1ccc(S(=O)(=O)NC(=O)C2CCCS(=O)(=O)C2)o1 (stereo not drawn) [Example 85, N-[6-(5-chloro-1,3-benzoxazol-2-yl)spiro[3.3]heptan-2-yl]-5-[(1,1-dioxothiane-3-carbonyl)sulfamoyl]furan-2-carboxamide] | 1.67 µM | 2.52 µM | > 10 µM |
| NC(=O)c1ccc(C(=O)NC2CC3(C2)CC(c2nc4cc(Cl)ccc4o2)C3)o1 (stereo not drawn) [Example 11, N2-[6-(5-Chloro-1,3-benzoxazol-2-yl)spiro[3.3]heptan-2-yl]furan-2,5-dicarboxamide] | 5.22 µM | 5.88 µM | > 10 µM |
| N=S(=O)(c1ccc(C(=O)NC2CC3(C2)CC(c2nc4cc(Cl)ccc4o2)C3)o1)N1CCOCC1 (stereo not drawn) [Example 67, N-[6-(5-chloro-1,3-benzoxazol-2-yl)spiro[3.3]heptan-2-yl]-5-(morpholinosulfonimidoyl)furan-2-carboxamide] | 3.65 µM | 6.24 µM | > 10 µM |
| CN1CC(CS(=O)(=O)c2ccc(C(=O)NC3CC4(C3)CC(c3nc5cc(Cl)ccc5o3)C4)o2)C1 (stereo not drawn) [Example 25, N-[6-(5-chloro-1,3-benzoxazol-2-yl)spiro[3.3]heptan-2-yl]-5-[(1-methylazetidin-3-yl)methylsulfonyl]furan-2-carboxamide] | 3.73 µM | 4.19 µM | > 10 µM |
| COCCS(=O)(=O)c1ccc(C(=O)NC2CC3(C2)CC(c2nc4cc(Cl)ccc4o2)C3)o1 (stereo not drawn) [Example 28, N-[6-(5-chloro-1,3-benzoxazol-2-yl)spiro[3.3]heptan-2-yl]-5-(2-methoxyethylsulfonyl)furan-2-carboxamide] | 0.509 µM | 0.758 µM | 94.2 µM |
| N=S(=O)(c1ccc(C(=O)NC2CC3(C2)CC(c2nc4cc(Cl)ccc4o2)C3)o1)C1CC1 (stereo not drawn) [Example 53, N-[6-(5-chloro-1,3-benzoxazol-2-yl)spiro[3.3]heptan-2-yl]-5-(cyclopropylsulfonimidoyl)furan-2-carboxamide] | 0.394 µM | 0.494 µM | > 10 µM |
| O=C(NC1CC2(C1)CC(c1nc3cc(Cl)ccc3o1)C2)c1ccc([S+]([O-])C(F)(F)F)o1 (stereo not drawn) [Example 42, N-[6-(5-chloro-1,3-benzoxazol-2-yl)spiro[3.3]heptan-2-yl]-5-(trifluoromethylsulfinyl)furan-2-carboxamide] | 1.41 µM | 1.52 µM | 96.2 µM |
| O=C(NC1CC2(C1)CC(c1nc3cc(Cl)ccc3o1)C2)c1ccc(S(=O)(=O)NC(=O)C2CS(=O)(=O)C2)o1 (stereo not drawn) [Example 83, N-[6-(5-chloro-1,3-benzoxazol-2-yl)spiro[3.3]heptan-2-yl]-5-[(1,1-dioxothietane-3-carbonyl)sulfamoyl]furan-2-carboxamide] | 1.97 µM | 3.3 µM | > 10 µM |
| CS(=N)(=O)c1ccc(C(=O)NC2CC3(C2)CC(c2nc4cc(Cl)cnc4o2)C3)o1 (stereo not drawn) [Example 63, N-[6-(6-chlorooxazolo[5,4-b]pyridin-2-yl)spiro[3.3]heptan-2-yl]-5-(methylsulfonimidoyl)furan-2-carboxamide] | 4.94 µM | 6.69 µM | > 100 µM |
| O=C(NC1CC2(C1)CC(c1nc3cc(Cl)ccc3o1)C2)c1ccc(S(=O)(=O)CC2CC2)o1 (stereo not drawn) [Example 20, N-[6-(5-chloro-1,3-benzoxazol-2-yl)spiro[3.3]heptan-2-yl]-5-(cyclopropylmethylsulfonyl)furan-2-carboxamide] | 0.18 µM | 0.445 µM | 89.2 µM |
